# Laboratory results taken from ChEMBL document CHEMBL3098064, “Sortase A inhibitory metabolites from the roots of Pulsatilla koreana” (Bioorg Med Chem Lett, 2014).
# Assay: Inhibition of Streptococcus mutans OMZ65 recombinant sortase A delta-40 mutant using Dabcyl-QALPETGEE-Edans as substrate after 1 hr by fluorescence spectrophotometry
row,Compound,IC50 [µM]
1,COc1cc(/C=C/C(=O)O)ccc1O [FERULATE],> 100
2,O=C(O)/C=C/c1ccc(O)c(O)c1 [CAFFEIC ACID],20.2
3,Para-Hydroxymercuribenzoic acid,35.1
4,COc1cc([C@H]2Oc3c(OC)cc(CCCO)cc3[C@H]2CO[C@@H]2O[C@H](CO)[C@@H](O)[C@H](O)[C@H]2O)ccc1O,82.8
5,COc1cc([C@H]2Oc3c(OC)cc(CCCO)cc3[C@H]2CO)ccc1O,35.9
6,COc1cc(C[C@@H]2COC(=O)[C@]2(O)Cc2ccc(O)c(OC)c2)ccc1O,> 100
7,O=C(/C=C/c1ccc(O)c(O)c1)O[C@@H](Cc1ccc(O)c(O)c1)C(=O)O,20.1
8,COc1cc([C@@H]2OC[C@@H]3[C@H]2CO[C@H]3c2ccc(O)c(OC)c2)ccc1O [(+)-PINORESINOL],67.7
9,COc1cc(C[C@@H]2COC(=O)[C@@]2(Cc2ccc(O)c(OC)c2)O[C@@H]2O[C@H](CO)[C@@H](O)[C@H](O)[C@H]2O)ccc1O,41.2
10,COc1cc(C[C@H]2COC(=O)[C@@H]2Cc2ccc(O)c(OC)c2)ccc1O [MATAIRESINOL],> 100
11,CO[C@@H](Cc1ccc(O)cc1)C(=O)O,> 100
12,O=C(/C=C/c1ccc(O)c(O)c1)O[C@H](C(=O)O)[C@@H](OC(=O)/C=C/c1ccc(O)c(O)c1)C(=O)O,60
13,COc1cc([C@H]2Oc3c(OC)cc(CCCO[C@@H]4O[C@H](CO)[C@@H](O)[C@H](O)[C@H]4O)cc3[C@H]2CO)ccc1O,37.3
